Publication PMC3199867, “Targeting surface nucleolin with multivalent HB-19 and related Nucant pseudopeptides results in distinct inhibitory mechanisms depending on the malignant tumor cell type” (BMC Cancer, 2011)

Columns and labels:
MDA-MB-231 = assay: Cell adhesion to plastic culture flask; assay type: cell-based, human; settings: MDA-MB-231, 10 μM, adherent cells counted after 16 hours of culture
Text: (§1) A. Inhibition of Cell adhesion by N6. […] C. The effect of Nucant treatment on cell proliferation. […] The ordinates give the mean ± SD of triplicate samples. Statistical significance: **p < 0.01, ***p < 0.001.

MDA-MB-435 = assay: Cell adhesion to plastic culture flask; assay type: cell-based, human; settings: MDA-MB-435, 10 μM, adherent cells counted after 16 hours of culture
Text: as §1

LNCaP [1] = assay: Cell adhesion to plastic culture flask; assay type: cell-based, human; settings: 10 μM, adherent cells counted after 16 hours of culture
Text: as §1

RAJI = assay: Cell death (trypan blue uptake); assay type: cell-based, human; settings: freshly passaged, N6 or N7 20 μM, mean of at least 2 independent experiments
Experimental: (§2) Human breast (MDA-MB-231, MDA-MB-435 [37]), prostate (LNCaP, from American Type Culture Collection, ATCC, Rockville, MD), and cervical (HeLa) epithelial cancer cells were grown in DMEM-glutamax medium (Gibco Invitrogen, Cergy-Pontoise, France) containing GlutaMAX™, 4.5 g/l glucose and supplemented with 10% heat-inactivated (56°C for 30 min) fetal bovine serum (FBS; Hyclone, Thermo Fisher Scientific, Inc). Human SW480 cells are derived from a grade 3-4 colon carcinoma, while the highly metastatic counterpart SW620 is established from the lymph node of a person. Both SW480 and SW620 cells (obtained from Francis Raul, IRCAD) are highly tumorigenic in nude mice. They were cultured in D-MEM, 10% FCS. The murine melanoma TIII cell line was obtained from Armelle Prévost-Blondel. Murine T29 lymphoma cells, obtained from Philippe Kastner (CNRS, Strasbourg), have been established from Ik^L/L tumors from mice carrying a hypomorphic mutation (Ik^L/L) in the Ikaros gene encoding a transcription factor that regulates lymphocyte differentiation, and acts also as a tumor suppressor in T lymphocytes. The T29 cells were cultured in RPMI medium containing 25 mM Hepes pH 7.6, 1 mM sodium pyruvate, and 10% FCS. Human leukemia cell lines, Jurkat (acute T cell leukemia), HuT 78 (cutaneous T lymphocyte), RAJI (Burkitt lymphoma), and HL60 (promyelocytic leukemia) were cultured in RPMI-1640 medium (Gibco) containing GlutaMAX™, and supplemented with 10% heat-inactivated FBS as described before. The wild-type Chinese hamster ovary cell line (CHO K1) was purchased from American Type Culture Collection (ATCC; Rockville, MD). The CHO LRP1-null cell line (CHO-13-5-1) was kindly provided by D. Strickland [47]. They were cultured in Ham's F12K medium. All cells were cultured with 10% (v/v) heat inactivated (56°C, 30 min) fetal bovine serum (FBS) (Roche Molecular Biochemicals, Indianapolis, IN) and 50 international units/mL penicillin-streptomycin (Invitrogen). Cell death was monitored conveniently by uptake of the trypan blue dye due to plasma membrane permeability of dying and/or dead cells.

SW480 = assay: Cell death (trypan blue uptake); assay type: cell-based, human; settings: SW480, subconfluent, N6 or N7 20 μM, mean of at least 2 independent experiments
Experimental: as §2

HL60 = assay: Cell death (trypan blue uptake); assay type: cell-based, human; settings: HL60, freshly passaged, N6 or N7 20 μM, mean of at least 2 independent experiments
Experimental: as §2

LNCaP [2] = assay: Cell death (trypan blue uptake); assay type: cell-based, human; settings: subconfluent, N6 or N7 20 μM, mean of at least 2 independent experiments
Experimental: as §2

melanoma TIII cell = assay: Cell adhesion; assay type: cell-based, murine; settings: after 5 hours of cell seeding, vs untreated control, mean of at least 2 independent experiments

Substance	degree of adhesion inhibition (MDA-MB-231)	degree of adhesion inhibition (MDA-MB-435)	degree of adhesion inhibition (LNCaP [1])	% Cell death After 24 hours (RAJI)	% Cell death After 24 hours (SW480)	% Cell death After 24 hours (HL60)	% Cell death After 24 hours (LNCaP [2])	% Inhibition of cell Adhesion (melanoma TIII cell; 2.5 μM)	% Inhibition of cell Adhesion (melanoma TIII cell; 5 μM)	% Inhibition of cell Adhesion (melanoma TIII cell; 10 μM)	% Inhibition of cell Adhesion (melanoma TIII cell; 20 μM)
Ac-Lys-Aib-Gly-Lys-Aib-Gly-Lys-Aib-Gly-Lys-Aib-Gly-Lys-Aib-Gly-Lys-Aib-Gly-CONH2 [Nucant N6, Presents hexavalently the pseudo-tripeptide Lysψ(CH2N)-Pro-Arg coupled to the polypeptide template containing Aib]	58%	41%	66%	42%	< 5%	35%	< 5%	15%	26%	38%	55%
Ac-KAKPGKAKPGKAKPG-NH2 [Nucant N7, Presents hexavalently the pseudo-tripeptide Lysψ(CH2N)-Pro-Arg coupled to a similar template as in HB-19]				42%	< 5%	35%	< 5%				
